Measured values as given in patent publication US20090227518A1, “COMPOSITIONS AND METHODS FOR TREATING ACTIN-MEDIATED MEDICAL CONDITIONS” (The Regents of the University of Colorado, priority 2005, published 2009).

What was measured:
NF-κB = experiment: IL-18-induced NF-κB expression; format: cell-based; details: induced by IL-18
Description: P3 inh is also known as CE-2072 or (benzyloxycarbonyl)-L-valyl-N-[1-(2-(3-methylbenzyl)-1,3,4-oxadiazolyl]carbonyl)-2-(S)-methylpropyl]-L-prolinamide. Methods of preparing P3 inh and its derivatives are disclosed in U.S. Pat. No. 5,807,829, which is incorporated by reference herein. […] A band that corresponds to IL-18-induced NF-κB was much larger than NF-κB in controls not stimulated by IL-18. […] This was an unexpected observation as these compounds are not known to interfere with NF-κB expression.

HIV-1 = experiment: U1 monocytic cell assay (HIV-1 p24 antigen); details: same experimental condition as in Example 7
Experimental: The U1 cell line was derived from human monocytic U937 cells into which 2 copies of HIV-1 provirus were incorporated into host genome. […] U1 cells were maintained in T-175 polystyrene flasks (Falcon, Becton Dickinson, Franklin Lakes, N.J.) in medium and used when in log phase growth. Cells were counted in a hemacytometer, examined for viability by Trypan blue exclusion (>95% for all experiments) and resuspended in fresh medium at 2×10^6 per ml. Two-hundred fifty μl of cell suspension were added to wells of 24-well polystyrene tissue culture plates (Falcon), followed by the addition of medium or AAT to produce the final concentration to be tested in a volume of 450 μl. After 1.0 hr of incubation (37° C., 5% CO2), 50 μl of medium (control) or stimulus diluted in medium were added to wells to produce the final concentration of stimulus to be tested. The final culture volumes were 500 μl and contained 1×10^6 cells per ml. […]
Data are presented as means±SEM. […] For data expressed as percent change, the values for p24 in control cultures (medium alone) were subtracted from those for each culture-containing stimulus. […] Percent p24 in cultures containing stimulus and AAT were calculated by dividing the measured p24 by that present in cultures containing stimulus alone. The resultant fraction was expressed as a percent.

HIV-1 strain A018A = format: cell-based, human; details: alone or in combination
Description: The MAGI (Multinuclear Activation of a Galactosidase Indicator)-CCR-5 cell line is a clone derived from the HeLa cell line that expresses high levels of CD4. It has been transfected with a single integrated copy of a galactosidase gene under control of the HIV-1 long terminal repeat. β-Galactosidase is expressed upon production of HIV-1 Tat protein following one round of HIV-1 replication within the cell. The MAGI-CCR-5 cell line is derived from MAGI cells into which the CCR-5 HIV-1 co-receptor gene has been incorporated. These cells constitute an assay for early infection events and can be infected with either lymphocyte-tropic or macrophage-tropic HIV-1 strains.
Cells were cultured in polystyrene T-175 flasks in medium until cells were noted to be in log growth phase. Cells were then resuspended in fresh medium and aliquoted into 24-well polystyrene plates at 4×10^4 cells per well (1.0 ml total volume). After 24 hr incubation adherent cells were 30-40% confluent and medium was removed. Two hundred μl of fresh medium was then added to each well without (negative control) or with AAT and incubated for 1 hour. AAT diluent was added to a separate well at a volume equivalent to that of the highest concentration of AAT tested (control).
One hundred thirty TCID50 of HIV-1 and DEAE dextran in medium were added to each well. T-cell tropic HIV-1 strain A018A was used. After 2 hr incubation, medium was added to each well to adjust the final volume of each well to 500 μl. Cultures were incubated for 48 hr, which allowed infection of the MAGI-CCR-5 cells. Medium was aspirated and the cells fixed for 5.0 min at room temperature by adding 1.0 ml of a 1% formaldehyde/0.2% glutaraldehyde solution in phosphate buffered saline (PBS). Fixing solution was then aspirated and cells washed with PBS. This was followed by addition of galactosidase staining solution. Fifty minutes of incubation was followed by a blinded optical count of pigmented cells under a microscope.
The MAGI-CCR-5 cell assay evaluates early events in the HIV-1 infection process. These events include cell-surface binding and internalization, uncoating, reverse transcription and translation, protein processing and Tat activity. Binding of the tat protein to a reporter construct within the MAGI-CCR-5 cells enables quantification of these early HIV-1 events.

[1] = tested on: peritoneal cellular infiltrate; experiment: Thioglycolate-elicited peritoneal infiltration; format: in vivo, mice; details: 1 mg
Experimental: Peritoneal lavage was performed at 24 and 48 hours (thioglycolate) or on days 1-5 (allogeneic cells). For lavage, mice were anesthetized by isoflurane inhalation and injected immediately with 5.5 ml cold PBS containing 5% FCS and 5 U/ml heparin into the peritoneal cavity. After massaging the abdomen, peritoneal fluid was recovered with an 18.5 G needle and syringe. Recovered volumes ranged from 4.5 to 5.5 ml. Red blood cells were lysed (RBC lysing buffer, BD PharMingen) and cell counts were performed with a hemocytometer. Cells were then centrifuged and the pellet was resuspended in wash buffer containing 2% BSA, 0.1% sodium azide and 0.1% EDTA. Cells were kept at 4° C. throughout the staining procedure. Cells (at least 1×10^6/polypropylene vial) were incubated with FcγRIII/II receptor blocking antibodies (Table 1) for 10 min. […] The number of cells expressing a particular marker was calculated by multiplying percentages obtained from flow-cytometry by the concentration of cells in lavage fluid.
To address the possibility that AAT affects immune cell infiltration, two models of cell emigration were examined: thioglycolate (ThG)-elicited peritoneal infiltration, and cellular infiltration due to intraperitoneal injection of MHC-incompatible fibroblasts. […] Peritoneal lavage was performed 24 and 48 hours later and cells were counted and stained with specific antibodies for FACS analysis.

porcine elastase = porcine elastase (Sus scrofa, UniProt P00772); experiment: Elastase neutralization assay; format: biochemical; details: cleavable color-generating substrate
Chain of porcine elastase (P00772 27-266): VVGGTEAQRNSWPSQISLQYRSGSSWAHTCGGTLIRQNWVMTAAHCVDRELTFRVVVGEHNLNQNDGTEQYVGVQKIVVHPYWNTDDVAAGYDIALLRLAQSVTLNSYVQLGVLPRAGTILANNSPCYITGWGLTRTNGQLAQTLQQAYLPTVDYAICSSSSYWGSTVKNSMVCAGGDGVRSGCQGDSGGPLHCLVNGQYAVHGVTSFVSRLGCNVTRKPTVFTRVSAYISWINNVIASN
Experimental: The anti-serine protease function of AAT was examined for its role in the inhibitory effects on HIV-1. AAT was modified to reduce its serine protease inhibitory function to undetectable levels. Quantitation of the anti-protease activity of AAT was determined using an elastase neutralization assay. In this assay porcine elastase was incubated with a cleavable substrate. Upon cleavage of the substrate by elastase, a color-generating product was released, which was quantitated using a spectrophotometer. […] The inactivated AAT was then added to U1 cells, which was then stimulated with IL-18 and compared to native AAT.

F-actin = F-actin filament depolymerization; format: biochemical; details: added to preformed F-actin filaments
Experimental: In separate experiments (data not shown), F-actin filaments were produced and AAT was added to determine if AAT had depolymerization properties. As a control, Getsolin™, a protein that has known depolymerization properties, was added to F-actin filaments.

[2] = target: F-actin (filamentous actin); experiment: F-actin co-sedimentation, 150,000 x g, SDS-PAGE densitometry, eight replicates

Compound	antiviral activity in MAGI cultures (HIV-1 strain A018A)	further results
Cc1cccc(Cc2nnc(C(=O)C(NC(=O)[C@@H]3CCCN3C(=O)[C@@H](NC(=O)OCc3ccccc3)C(C)C)C(C)C)o2)c1 (stereo partly shown) [P3 inh]		NF-κB expression (NF-κB): reduced; anti-HIV-1 effect (HIV-1): significant anti-HIV-1 effect
AVFLM: short peptide homologous/analogous to the C-terminal region of AAT	active	
FAFLM: short peptide homologous/analogous to the C-terminal region of AAT	active	
FIIMI: short peptide homologous/analogous to the C-terminal region of AAT	active	
FLFAV: short peptide homologous/analogous to the C-terminal region of AAT	active	
FLFCI: short peptide homologous/analogous to the C-terminal region of AAT	active	
FLFFI: short peptide homologous/analogous to the C-terminal region of AAT	active	
FLFLI: short peptide homologous/analogous to the C-terminal region of AAT	active	
FLFVL: short peptide homologous/analogous to the C-terminal region of AAT	active	
FLFVV: short peptide homologous/analogous to the C-terminal region of AAT	active	
FLMFI: short peptide homologous/analogous to the C-terminal region of AAT	active	
FLMII: short peptide homologous/analogous to the C-terminal region of AAT	active	
FLVFI: short peptide homologous/analogous to the C-terminal region of AAT	active	
FMLLI: short peptide homologous/analogous to the C-terminal region of AAT	active	
FVALM: short peptide homologous/analogous to the C-terminal region of AAT	active	
FVFAM: short peptide homologous/analogous to the C-terminal region of AAT	active	
FVFLA: short peptide homologous/analogous to the C-terminal region of AAT	active	
FVFLM: short peptide from the C-terminal region of AAT	active	
FVYLI: carboxyterminal peptide analyzed for its effect on HIV-1	active	
Oxidized AAT: AAT oxidized by myeloperoxidase (MPO) system; loss of activity confirmed by elastase activity assay		cellular infiltrate [1]: did not affect cellular infiltrate; anti-protease (elastase inhibitory) activity (porcine elastase): Loss of activity
gelsolin		depolymerization of F-actin filaments (F-actin): actively dissociate
α1-antitrypsin (AAT), purified from human plasma		fold increase in actin-sedimented AAT against AAT only [2]: 1.7 fold; percentage of AAT sedimented in the presence of actin (AAT only = 100%) [2]: 268%
